Experimental data published in patent US10160747B2, “Compounds and methods for kinase modulation, and indications therefor” (Plexxikon Inc., priority 2016, dated 2018).

How the values were obtained:
FLT3-ITD = biological target: T1, FLT3-ITD (Homo sapiens, UniProt P36888); experiment: FLT3-ITD recombinant enzyme kinase assay (AlphaScreen); type: biochemical; details: 8 pt; read-out: FLT3_ITD 8 pt: IC50
T1 sequence (P36888 1-993): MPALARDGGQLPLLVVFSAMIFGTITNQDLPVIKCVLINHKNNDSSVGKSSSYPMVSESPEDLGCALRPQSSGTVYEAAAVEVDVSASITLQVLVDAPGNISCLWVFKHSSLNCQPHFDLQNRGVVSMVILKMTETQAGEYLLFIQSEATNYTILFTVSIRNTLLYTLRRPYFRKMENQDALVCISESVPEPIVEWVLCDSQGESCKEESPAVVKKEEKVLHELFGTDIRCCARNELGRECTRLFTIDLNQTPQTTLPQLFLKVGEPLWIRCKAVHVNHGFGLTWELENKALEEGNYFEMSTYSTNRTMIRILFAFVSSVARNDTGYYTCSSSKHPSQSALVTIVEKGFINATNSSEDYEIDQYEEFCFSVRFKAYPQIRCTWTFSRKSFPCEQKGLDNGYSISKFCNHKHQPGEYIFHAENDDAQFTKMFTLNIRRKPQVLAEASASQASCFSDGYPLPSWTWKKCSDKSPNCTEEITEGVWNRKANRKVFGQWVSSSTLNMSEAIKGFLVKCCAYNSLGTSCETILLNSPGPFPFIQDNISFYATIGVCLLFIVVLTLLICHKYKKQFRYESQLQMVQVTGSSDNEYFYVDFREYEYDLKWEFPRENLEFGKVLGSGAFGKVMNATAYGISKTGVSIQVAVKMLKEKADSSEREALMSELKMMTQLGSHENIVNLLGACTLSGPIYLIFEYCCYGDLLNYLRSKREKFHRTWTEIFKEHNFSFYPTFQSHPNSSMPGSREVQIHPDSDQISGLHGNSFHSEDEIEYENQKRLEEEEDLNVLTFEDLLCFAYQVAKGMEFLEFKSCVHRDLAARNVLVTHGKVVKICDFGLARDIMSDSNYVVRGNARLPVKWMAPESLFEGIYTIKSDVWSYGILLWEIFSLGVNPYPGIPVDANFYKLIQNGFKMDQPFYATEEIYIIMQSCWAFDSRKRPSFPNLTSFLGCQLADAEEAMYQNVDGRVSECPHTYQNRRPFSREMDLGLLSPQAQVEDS
How it was run: (§1)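 IC50 values come from AlphaScreen proximity signal: phosphorylated biotin-poly(Glu4-Tyr) (30 nM) bridges streptavidin donor and anti-phosphotyrosine PY20 acceptor beads. Enzyme reactions ran at 100 μM ATP for c-KIT versus 10 μM for both FLT3 mutants (ITD, D835Y); beads added in stop buffer, room temperature.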

FLT3-D835Y = biological target: T2, FLT3-D835Y (Homo sapiens, UniProt P36888, D835Y); experiment: FLT3-D835Y recombinant enzyme kinase assay (AlphaScreen); type: biochemical; details: 8 pt, GMean
T2 construct: purchased Invitrogen PV3967
T2 sequence (P36888 27-993 D835Y): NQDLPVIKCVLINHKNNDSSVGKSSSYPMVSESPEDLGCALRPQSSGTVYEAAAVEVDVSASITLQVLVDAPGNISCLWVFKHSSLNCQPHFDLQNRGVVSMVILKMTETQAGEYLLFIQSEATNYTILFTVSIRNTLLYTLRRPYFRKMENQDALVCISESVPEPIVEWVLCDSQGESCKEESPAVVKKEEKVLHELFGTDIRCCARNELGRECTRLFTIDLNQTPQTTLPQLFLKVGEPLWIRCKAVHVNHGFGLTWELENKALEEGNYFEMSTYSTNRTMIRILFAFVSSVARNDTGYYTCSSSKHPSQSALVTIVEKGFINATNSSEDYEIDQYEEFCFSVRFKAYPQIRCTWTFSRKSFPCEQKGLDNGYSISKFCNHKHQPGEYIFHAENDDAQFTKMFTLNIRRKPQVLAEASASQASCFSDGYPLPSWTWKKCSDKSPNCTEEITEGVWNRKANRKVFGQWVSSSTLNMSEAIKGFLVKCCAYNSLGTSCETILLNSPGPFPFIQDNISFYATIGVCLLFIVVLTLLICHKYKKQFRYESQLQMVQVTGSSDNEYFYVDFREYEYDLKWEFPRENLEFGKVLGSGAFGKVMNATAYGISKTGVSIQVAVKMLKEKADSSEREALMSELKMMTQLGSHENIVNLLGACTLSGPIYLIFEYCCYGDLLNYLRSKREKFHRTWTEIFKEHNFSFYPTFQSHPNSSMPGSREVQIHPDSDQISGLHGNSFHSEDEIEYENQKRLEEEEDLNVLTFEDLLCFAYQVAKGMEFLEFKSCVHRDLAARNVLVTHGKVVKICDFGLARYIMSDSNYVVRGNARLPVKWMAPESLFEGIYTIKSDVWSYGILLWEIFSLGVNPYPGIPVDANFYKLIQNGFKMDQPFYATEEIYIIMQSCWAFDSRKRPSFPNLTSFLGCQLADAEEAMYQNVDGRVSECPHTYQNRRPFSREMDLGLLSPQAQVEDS
How it was run: as §1

IC50 (FLT3-ITD)	IC50 (FLT3-D835Y)	SMILES
0.0001 to 10 µM	0.0001 to 10 µM	O=C(Cc1ccc(-c2cnc(Nc3cnn(C4CC4)c3)nc2)cc1)Nc1cc(C(F)(F)F)ccn1 [Compound P-0237, 2-[4-[2-[(1-cyclopropylpyrazol-4-yl)amino]pyrimidin-5-yl]phenyl]-N-[4-(trifluoromethyl)-2-pyridyl]acetamide]
0.0001 to 10 µM	0.0001 to 10 µM	O=C(Cc1ccc(-c2cnc(Nc3cnn(C4CC4)c3)nc2)cc1F)Nc1cncc(C(F)(F)F)c1 [Compound P-0238, 2-[4-[2-[(1-cyclopropylpyrazol-4-yl)amino]pyrimidin-5-yl]-2-fluoro-phenyl]-N-[5-(trifluoromethyl)-3-pyridyl]acetamide]
0.0001 to 10 µM	0.0001 to 10 µM	Cc1ncc(NC(=O)Cc2ccc(-c3cnc(Nc4cnn(C5CC5)c4)nc3)cc2F)cc1C(F)(F)F [Compound P-0239, 2-[4-[2-[(1-cyclopropylpyrazol-4-yl)amino]pyrimidin-5-yl]-2-fluoro-phenyl]-N-[6-methyl-5-(trifluoromethyl)-3-pyridyl]acetamide]
0.0001 to 10 µM	0.0001 to 10 µM	O=C(Cc1ccc(-c2cnc(Nc3cnn(C4CC4)c3)nc2)cc1F)Nc1cnc(Cl)c(C(F)(F)F)c1 [Compound P-0240, N-[6-chloro-5-(trifluoromethyl)-3-pyridyl]-2-[4-[2-[(1-cyclopropylpyrazol-4-yl)amino]pyrimidin-5-yl]-2-fluoro-phenyl]acetamide]
0.0001 to 10 µM	0.0001 to 10 µM	COc1ncc(NC(=O)Cc2ccc(-c3cnc(Nc4cnn(C5CC5)c4)nc3)cc2F)cc1C(F)(F)F [Compound P-0241, 2-[4-[2-[(1-cyclopropylpyrazol-4-yl)amino]pyrimidin-5-yl]-2-fluoro-phenyl]-N-[6-methoxy-5-(trifluoromethyl)-3-pyridyl]acetamide]
0.0001 to 10 µM	0.0001 to 10 µM	O=C(Cc1ccc(-c2cnc(Nc3cnn(C4CC4)c3)nc2)cc1F)Nc1ccc(C(F)(F)F)nc1 [Compound P-0242, 2-[4-[2-[(1-cyclopropylpyrazol-4-yl)amino]pyrimidin-5-yl]-2-fluoro-phenyl]-N-[6-(trifluoromethyl)-3-pyridyl]acetamide]
0.0001 to 10 µM	0.0001 to 10 µM	O=C(Cc1ccc(-c2cnc(Nc3cnn(C4CC4)c3)nc2)cc1F)Nc1ccc(C(F)(F)F)cn1 [Compound P-0243, 2-[4-[2-[(1-cyclopropylpyrazol-4-yl)amino]pyrimidin-5-yl]-2-fluoro-phenyl]-N-[5-(trifluoromethyl)-2-pyridyl]acetamide]
0.0001 to 10 µM	0.0001 to 10 µM	O=C(Cc1ccc(-c2cnc(Nc3cnn(C4CC4)c3)nc2)cc1F)Nc1cc(C(F)(F)F)ccn1 [Compound P-0244, 2-[4-[2-[(1-cyclopropylpyrazol-4-yl)amino]pyrimidin-5-yl]-2-fluoro-phenyl]-N-[4-(trifluoromethyl)-2-pyridyl]acetamide]
0.0001 to 10 µM	0.0001 to 10 µM	CCn1cc(Nc2ncc(-c3ccc(CC(=O)Nc4cc(C(F)(F)F)ccn4)cc3)cn2)cn1 [Compound P-0250, 2-[4-[2-[(1-ethylpyrazol-4-yl)amino]pyrimidin-5-yl]phenyl]-N-[4-(trifluoromethyl)-2-pyridyl]acetamide]
0.0001 to 10 µM	0.0001 to 10 µM	CCn1cc(Nc2ncc(-c3ccc(CC(=O)Nc4ccc(C(F)(F)F)cn4)cc3)cn2)cn1 [Compound P-0251, 2-[4-[2-[(1-ethylpyrazol-4-yl)amino]pyrimidin-5-yl]phenyl]-N-[5-(trifluoromethyl)-2-pyridyl]acetamide]
0.0001 to 10 µM	0.0001 to 10 µM	CCn1cc(Nc2ncc(-c3ccc(CC(=O)Nc4ccc(C(F)(F)F)nc4)cc3)cn2)cn1 [Compound P-0252, 2-[4-[2-[(1-ethylpyrazol-4-yl)amino]pyrimidin-5-yl]phenyl]-N-[6-(trifluoromethyl)-3-pyridyl]acetamide]
0.0001 to 10 µM	0.0001 to 10 µM	CCn1cc(Nc2ncc(-c3ccc(CC(=O)Nc4cnc(OC)c(C(F)(F)F)c4)cc3)cn2)cn1 [Compound P-0253, 2-[4-[2-[(1-ethylpyrazol-4-yl)amino]pyrimidin-5-yl]phenyl]-N-[6-methoxy-5-(trifluoromethyl)-3-pyridyl]acetamide]
0.0001 to 10 µM	0.0001 to 10 µM	CCn1cc(Nc2ncc(-c3ccc(CC(=O)Nc4cnc(C)c(C(F)(F)F)c4)cc3)cn2)cn1 [Compound P-0254, 2-[4-[2-[(1-ethylpyrazol-4-yl)amino]pyrimidin-5-yl]phenyl]-N-[6-methyl-5-(trifluoromethyl)-3-pyridyl]acetamide]
0.0001 to 10 µM	0.0001 to 10 µM	CCn1cc(Nc2ncc(-c3ccc(CC(=O)Nc4cc(C(F)(F)F)ccn4)c(F)c3)cn2)cn1 [Compound P-0255, 2-[4-[2-[(1-ethylpyrazol-4-yl)amino]pyrimidin-5-yl]-2-fluoro-phenyl]-N-[4-(trifluoromethyl)-2-pyridyl]acetamide]
0.0001 to 10 µM	0.0001 to 10 µM	CCn1cc(Nc2ncc(-c3ccc(CC(=O)Nc4ccc(C(F)(F)F)cn4)c(F)c3)cn2)cn1 [Compound P-0256, 2-[4-[2-[(1-ethylpyrazol-4-yl)amino]pyrimidin-5-yl]-2-fluoro-phenyl]-N-[5-(trifluoromethyl)-2-pyridyl]acetamide]
0.0001 to 10 µM	0.0001 to 10 µM	CCn1cc(Nc2ncc(-c3ccc(CC(=O)Nc4ccc(C(F)(F)F)nc4)c(F)c3)cn2)cn1 [Compound P-0257, 2-[4-[2-[(1-ethylpyrazol-4-yl)amino]pyrimidin-5-yl]-2-fluoro-phenyl]-N-[6-(trifluoromethyl)-3-pyridyl]acetamide]
0.0001 to 10 µM	0.0001 to 10 µM	CCn1cc(Nc2ncc(-c3ccc(CC(=O)Nc4cncc(C(F)(F)F)c4)c(F)c3)cn2)cn1 [Compound P-0258, 2-[4-[2-[(1-ethylpyrazol-4-yl)amino]pyrimidin-5-yl]-2-fluoro-phenyl]-N-[5-(trifluoromethyl)-3-pyridyl]acetamide]
0.0001 to 10 µM	0.0001 to 10 µM	CCn1cc(Nc2ncc(-c3ccc(CC(=O)Nc4cnc(OC)c(C(F)(F)F)c4)c(F)c3)cn2)cn1 [Compound P-0259, 2-[4-[2-[(1-ethylpyrazol-4-yl)amino]pyrimidin-5-yl]-2-fluoro-phenyl]-N-[6-methoxy-5-(trifluoromethyl)-3-pyridyl]acetamide]
0.0001 to 10 µM	0.0001 to 10 µM	CCn1cc(Nc2ncc(-c3ccc(CC(=O)Nc4cnc(Cl)c(C(F)(F)F)c4)c(F)c3)cn2)cn1 [Compound P-0260, N-[6-chloro-5-(trifluoromethyl)-3-pyridyl]-2-[4-[2-[(1-ethylpyrazol-4-yl)amino]pyrimidin-5-yl]-2-fluoro-phenyl]acetamide]
0.0001 to 10 µM	0.0001 to 10 µM	CCn1cc(Nc2ncc(-c3ccc(CC(=O)Nc4cnc(C)c(C(F)(F)F)c4)c(F)c3)cn2)cn1 [Compound P-0261, 2-[4-[2-[(1-ethylpyrazol-4-yl)amino]pyrimidin-5-yl]-2-fluoro-phenyl]-N-[6-methyl-5-(trifluoromethyl)-3-pyridyl]acetamide]
